Test results: US5169863A, “Hypersphyxia-causing methods” (K.K. Ueno Seiyaku Oyo Kenkyujo, priority 1988, dated 1992)
Read-outs that look alike come from different tables or passages of the source.

How the values were obtained:
[1] = changing rate of blood pressure and heart rate by intravenous injection in anesthetized rats; assay type: in vivo, Wister male rats; conditions: Rattus norvegicus, 1 (mg/kg)
Protocol: (blood pressure, heart rate increasing action by intravenous injection) Wister male rats (8 weeks old) were used as test animals. The rats were applied to anesthesia by intraperitoneal administration with 1.25 g/kg of urethane. The blood pressure was determined by inserting a polyethylene tube into a femoral artery, which was connected with a pressure transducer. The heart rate was determined from R wave of electrocardiograms (ECG) induced by standard limb lead II with a tachometer. Each test compound was dissolved in ethanol and intravenously administered to rats in 1 mg/kg diluted with Ringer's solution just before use. The maximum concentration of ethanol was 2 percent. An ethanol-containing Ringer without any test compound was used as a control to confirm the influence of the ethanol in each experiment. Each changing rate (%) in the blood pressure and heart rate before and after administration was determined, and the average of 3-4 experiments was shown in Table 1. Changing rates of blood pressure and heart rate were determined in the same manner as described in Example 1 except that the test compounds 60, 61 and 62 were used in different concentrations instead of the test compounds 1-55.

[2] = acute toxicity LD50; assay type: in vivo
[3] = progressing a breath (change rate of breath rate); assay type: in vivo, Wister male rats; conditions: Rattus norvegicus, iv, tail vein, rats
Protocol: Wister male rats (8 weeks old) were applied to anesthesia by intraperitoneal administration with 1.25 g/kg of urethane. A pick-up for breath was fixed on a top of a rat's nose, and the breath curve was recorded on a polygraph while the breath rate was counted with a tachometer.
Each test compound was dissolved in ethanol and administered to rats through a tale vein in 1 mg/kg as diluted with Ringer's solution just before use. The maximum concentration of ethanol was 2 percent. Ringers solution containing ethanol but not containing test compound was administered at every experiment as a control. The change rates (%) of the breath rate before and after administration were determined, and evaluated as progressing activity of breath.

[4] = recovery of blood pressure and heart rate of rats in hemorrhage shock; assay type: in vivo, Wister male rats; conditions: intravenous, dehematized rats
Protocol: (Recovery of blood pressure and heart rate of rats in hemorrhage shock)
Wister male rats (8 weeks old) were applied to anesthesia by subcutaneous injection with 1.5 g/kg of urethane. The blood pressure and heart rate were determined according to the same manner as in Example 1.
The rats were kept for 60 minutes in a room after a blood corresponding to 1.5% of the weight was removed.
13,14-dihydro-6,15-diketo-19-methyl-PGE1 ethyl ester (compound number 15) was dissolved in Ringer's solution (0.1 ml), and the solution was intravenously administered into the above dehematized rat. Ringer's solution was administered to a control group.
The recovery rates of the blood pressure and heart rate were obtained assuming the value at 60 minutes after dehematizing being 0% and the value before dehematizing being 100% respectively. In these FIGS. (1), (2) and (3) represent a dose of 1 mg/kg, dose of 0.5 mg/kg and control respectively.
The same procedure as the above except that the compounds of (7), (18) and (22) were used instead of the compound (15) was applied, and the effects are observed, the results of which are also shown in Table 3.

[5] = changes in blood flow rate in carotid, blood pressure and heart rate; assay type: in vivo, Wister male rats; conditions: 1 mg/kg, femoral artery, 4 experiments
Protocol: Wister male rats (9 weeks old) were used.
The rats were applied to anesthesia by intraperitoneal administration with 1.25 g/kg of urethane. The blood flow rate in carotid was determined by a stromuhr. The blood pressure and heart rate were determined according to the same manner as in Example 1.
13,14-dihydro-6,15-diketo-19-methyl-PGE1 ethyl ester (sample number: 15) was dissolved in a small amount of ethanol, and then diluted with Ringer's solution more than 50 times. About 0.1 ml (1 mg drag/kg rat) of the diluted solution was administered to a rat through a polyethylene tube inserted into a femoral artery. The changes in blood flow rate (BF), blood pressure (BP), heart rate (HR) were observed, and the average of 4 experiments were shown in FIG. 1.

[6] = Table 1, read-out: changing rate of blood pressure
[7] = Table 1, read-out: changing rate of heart rate
[8] = mouse, in vivo, IP, male mice, read-out: LD50
[9] = mouse, in vivo, IV, male mice, read-out: LD50
[10] = mouse, in vivo, PO, male mice, read-out: LD50

SMILES: CCCCCC(=O)CC[C@H]1[C@H](O)CC(=O)[C@@H]1CCCCCCC(=O)OCC [Compound 2, 13,14-dihydro-15-keto-PGE1 ethyl ester]
- change in vivo at 1 mg/kg [1, 6]: 1%
- change in vivo at 1 mg/kg [1, 7]: 20%
- LD50 [2, 8]: > 1000 mg/kg
- change in vivo at 1 mg/kg [3]: 47%

SMILES: CCOC(=O)CCCCC(=O)C[C@H]1C(=O)C[C@@H](O)[C@@H]1CCC(=O)CCCC(C)C [Compound 15, 13,14-dihydro-6,15-diketo-19-methyl-PGE1 ethyl ester]
- change in vivo at 1 mg/kg [1, 6]: 12%
- change in vivo at 1 mg/kg [1, 7]: 19%
- LD50 [2, 9]: > 300 mg/kg
- recovering of blood pressure % ([4]; 0.5 mg/kg): 39%
- recovering of heart rate % ([4]; 0.5 mg/kg): 62%
- recovering of blood pressure % ([4]; 1.0 mg/kg): 68%
- recovering of heart rate % ([4]; 1.0 mg/kg): 100%
- change in vivo at 1 mg/kg [3]: 26%
- change in blood flow rate (BF) in carotid ([5]; FIG. 1a): extremely increase
- change in blood pressure (BP) ([5]; FIG. 1b): extremely increase
- change in heart rate (HR) ([5]; FIG. 1c): extremely increase

SMILES: CCCCCC(=O)CC[C@H]1[C@H](O)CC(=O)[C@@H]1C/C=C\CCCC(=O)OC [Compound 21, 13,14-dihydro-15-keto-PGE2 methyl ester]
- change in vivo at 1 mg/kg [1, 6]: 18%
- change in vivo at 1 mg/kg [1, 7]: 35%
- LD50 [2, 9]: > 1000 mg/kg
- change in vivo at 1 mg/kg [3]: 29%

SMILES: CCCCCC(=O)CC[C@H]1[C@H](O)CC(=O)[C@@H]1C/C=C\CCCC(=O)OCC [Compound 22, 13,14-dihydro-15-keto-PGE2 ethyl ester]
- change in vivo at 1 mg/kg [1, 6]: 5%
- change in vivo at 1 mg/kg [1, 7]: 11%
- LD50 ([2]; IP, female mice): > 500 mg/kg
- LD50 ([2]; PO, female mice): > 4000 mg/kg
- LD50 ([2]; SC, female mice): > 1000 mg/kg
- LD50 [2, 8]: > 500 mg/kg
- LD50 [2, 10]: > 4000 mg/kg
- LD50 ([2]; mouse, in vivo, SC, male mice, read-out: LD50): > 1000 mg/kg
- recovering of blood pressure % ([4]; 0.5 mg/kg): 32%
- recovering of heart rate % ([4]; 0.5 mg/kg): 50%
- recovering of blood pressure % ([4]; 1.0 mg/kg): 74%
- recovering of heart rate % ([4]; 1.0 mg/kg): 63%
- change in vivo at 1 mg/kg [3]: 28%

SMILES: CCCCC(F)C(=O)CC[C@H]1[C@H](O)CC(=O)[C@@H]1C/C=C\CCCC(=O)OC (some centres unmarked) [Compound 37, 13,14-dihydro-15-keto-16R,S-fluoro-PGE2 methyl ester]
- change in vivo at 1 mg/kg [1, 6]: 56%
- change in vivo at 1 mg/kg [1, 7]: 33%
- LD50 [2, 10]: > 500 mg/kg
